Experiments:
[1] = test system: C. albicans conditional pseudohyphal mutant (grr1/grr1, MET3p-driven GRR1) yeast-to-pseudohypha transition; assay: Inhibition of yeast-to-pseudohypha transition in optical microplates, monitored by microscopy; assay type: cell-based, Candida albicans
Source text: (§1) A simple in vitro assay system was designed to detect inhibition of the yeast-to-filamentous growth transition in C. albicans. In this assay, C. albicans cells are first grown under conditions that maintain them in a yeast growth form. The yeast-form cells are then transferred to the wells of an optical microplate containing (i) a medium that induces either the yeast-to-hypha transition (in wild type cells) or the yeast-to-pseudohypha transition (in a conditional pseudohyphal mutant strain) and (ii) varying concentrations of BH3I-1 (typically 0, 10, 30, 50, 100 and 200 μM BH3I-1). The plates are incubated for up to six hours at 37° C. (to test for the hyphal transition) or up to 24 hours 30° C. (to test for the pseudohyphal transition). The transition to filamentous growth (or lack thereof) is monitored in the optical microplates directly with a Nikon TE200 inverted microscope.
(§2) C. albicans SC3514 was used as the “wild type” strain to monitor the yeast-to-hypha transition. A “conditional pseudohyphal mutant” strain was used to monitor the yeast-to-pseudohypha transition. The conditional strain harbors deletions of both native GRR1 alleles plus an introduced wild type copy of GRR1 under the control of the regulatable MET3 promoter. Deletion of GRR1 was previously found to cause pseudohyphal growth.
(§3) Standard yeast growth media were used for these experiments. To maintain wild type cells in the yeast-form, cells were grown in YPD medium (1% Yeast Extract, 2% Peptone and 2% Dextrose) at 30° C. To induce hyphal growth in the wild type strain, cells were transferred to Spider medium (1% Nutrient broth, 1% mannitol, […]) at 37° C. or to Lee's medium (0.5% (NH4)SO4, 0.02% MgSO4, 0.5% NaCl, 1.25% glucose, supplemented with alanine, leucine, lysine, ornithine, phenylalanine threonine and biotin) at 37° C. To maintain the conditional pseudohyphal mutant strain in the yeast-form, cells were grown in YNB medium (Yeast Nitrogen Base, ammonium sulfate, succinic acid supplemented with the appropriate amino acids) at 30° C. […]

[2] = test system: C. albicans SC3514 (wild type) yeast-to-hypha transition; assay: Inhibition of yeast-to-hypha transition in optical microplates, monitored by microscopy; assay type: cell-based, Candida albicans
Source text: as §1, §2, §3

## CC(C)C(C(=O)O)N1C(=O)C(=Cc2ccc(Br)cc2)SC1=S (stereo not drawn) [BH3I-1, 5-(p-Bromobenzylidine)-α-isopropyl-4-oxo-2-thioxo-3-thiozolidineacetic acid]
[1]; conditional pseudohyphal mutant transferred from YNB medium to YNB plus methionine/cysteine medium
  yeast-to-pseudohypha transition of treated cells: failed to undergo the yeast-to-pseudohypha transition
[1]; conditional pseudohyphal mutant, YNB plus methionine/cysteine medium, 30° C.
  MIC for the yeast-to-pseudohypha transition: 100 µM
[1]; conditional pseudohyphal mutant, pseudohyphal-inducing medium
  growth of treated cells in pseudohyphal-inducing medium: continued to divide as yeast cells
[2]; wild type SC3514, both hyphal-inducing media (Spider medium, Lee's medium), 37° C.
  minimum inhibitory concentration (MIC) for the yeast-to-hypha transition: 50 to 100 µM
[2]; wild type SC3514, hyphal-inducing media
  growth of treated cells in hyphal-inducing media: continued to divide as yeast cells
[2]; wild type SC3514 transferred from YPD medium to Spider medium or Lee's medium
  yeast-to-hypha transition of treated cells: failed to undergo the yeast-to-hypha transition
